Reference: patent US12653899B2, “Multi-targeted, tunable, sustained delivery of payloads to charged avascular tissues” (Massachusetts Institute of Technology, priority 2019, dated 2026)

Tests used:
[1] = test system: human ankle cartilage explants treated with IL-1β; assay: Cumulative sGAG loss and final sGAG content (DMMB) in IL-1β challenge, human ankle cartilage; type: cell-based; conditions: 100 pg/ml IL-1β; for cumulative sGAG loss compared to the untreated control: 10-day time point
Procedure: Preliminary dose response experiments were performed to test the effects of human IL-1β (PeproTech, Rocky Hill, NJ) on human ankle cartilage. Ankle cartilage explants from two different donors (equilibrated in culture medium post-harvest) were cultured in serum-free low glucose medium (same composition as equilibration medium) and treated with continuous IL-1β doses ranging from 10 pg/ml to 1 ng/ml for 8 days. The experiments also included groups of explants that were treated with 300 ng/ml free IGF-1 at each dose level of IL-1β. Based on the results of these experiments, 100 pg/ml IL-1β was chosen as the dose used for the fusion protein dose response experiments. In these experiments, ankle and knee cartilage explants (equilibrated in culture medium post-harvest) were treated continuously with IL-1β and received single doses of fusion proteins (ranging from 39.2 nM to 2 μM) at the start of the experiments. Media changes with IL-1β but without fusion proteins were performed once every 2 to 3 days. An untreated control group, a control with continuous IL-1β alone, and a control with IL-1β combined with continuous free IGF-1 (300 ng/ml or 39.2 nM) were included. Experiments were terminated at 7-day and 10-day timepoints, and the sGAG biosynthesis rate, metabolic rate, sGAG loss to culture medium and sGAG content of the explants were measured.
The metabolic rate of cartilage explants was measured using the Alamar Blue assay (ThermoFisher). Cartilage explants were incubated for 3 hours in a 1× solution of Alamar Blue dissolved in culture medium. At the end of the incubation period, the absorbance of the medium at 570 nm and 600 nm was measured using a microplate reader (Synergy H1 Hybrid Multi-Mode Microplate Reader, BioTek). These readings were used to calculate the percentage reduction of Alamar Blue, which is directly proportional to the explant metabolic rate. These values were first normalized by individual explant weights. Following this, the weight-normalized readings for the treatment groups were normalized by the weight-normalized mean value for the untreated controls. To measure the chondrocyte biosynthesis rate of sulfated glycosaminoglycans (sGAGs), cartilage explants were cultured in the presence of 10 μCi/mL 35S-sulfate radiolabel during the final two days of each experiment. […] To calculate the cumulative loss of GAGs from the explants, the amount of sGAG lost to the medium and that left behind in the explants at the end of the experiment were measured using the dimethylene blue (DMMB) dye binding assay (Farndale et al., Biochim Biophys Acta. 883(2):173-177 (1986)).

[2] = test system: human knee cartilage explants; assay: Aggrecan/sGAG biosynthesis rate (35S-sulfate incorporation) in human knee cartilage explants; type: cell-based
Procedure: Cartilage was harvested from the knee joint of a donor. Cartilage explants were equilibrated in culture media for 2 days after harvest. […] These were cut down to 1 mm thickness and allowed to equilibrate for a further 2 days before the experiment was set up. Subsets of the experiment were terminated at 3 days and 7 days from the start of the experiment. Media changes were performed every 2 to 3 days.
For the 3-day termination experiment, chondrocyte biosynthesis rate (primarily aggrecan synthesis) was measured between days 0 and 3 of the experiment using a 35S-sulfate radiolabel. For the 7-day termination experiment, this measurement was done between days 5 and 7. Statistics: 1-way ANOVA with post-hoc Tukey's HSD test.
Cartilage was harvested from the knee joint of a donor. Cartilage explants were equilibrated in culture media for 3 days after harvest. […] These were cut down to 1 mm thickness and allowed to equilibrate for a further 3 days before the experiment was set up. Subsets of the experiment were terminated at 3 days and 7 days from the start of the experiment. Media changes were performed every 2 to 3 days.
Cartilage explants that were equilibrated in culture medium post-harvest were transferred to ultra-low attachment cell culture plates (Corning) for dose response experiments. All experiments were carried out in low glucose, serum free medium (same composition as equilibration medium). Previous studies studying the effects of IGF-1 on cartilage explants have used doses ranging from 10 ng/ml to 300 ng/ml. Based on these, 300 ng/ml (equivalent to 39.2 nM) of free recombinant human IGF-1 (PeproTech, Rocky Hill, NJ) was used as the positive control.
Since each fusion protein had one IGF-1 domain, equivalent doses (39.2 nM) of these were tested. In addition to this, 500 nM, 1 μM and 2 μM doses of fusion proteins were also tested. In all cases, only a single dose of the fusion proteins was added at the start of the experiment, and media changes were carried out without fusion proteins once every 2 to 3 days thereafter. In contrast, continuous doses of free IGF-1 were used for the positive control. An untreated control group was also included in the experiments. Experiments were terminated at 3-day, 7-day and 15-day time points. Outcome measures included the biosynthesis rate of sulfated glycosaminoglycans (sGAG), explant metabolic rate, sGAG loss to the culture medium and the explant sGAG content at the end of the experiment.
The metabolic rate of cartilage explants was measured using the Alamar Blue assay (ThermoFisher). Cartilage explants were incubated for 3 hours in a 1× solution of Alamar Blue dissolved in culture medium. At the end of the incubation period, the absorbance of the medium at 570 nm and 600 nm was measured using a microplate reader (Synergy H1 Hybrid Multi-Mode Microplate Reader, BioTek). These readings were used to calculate the percentage reduction of Alamar Blue, which is directly proportional to the explant metabolic rate. These values were first normalized by individual explant weights. Following this, the weight-normalized readings for the treatment groups were normalized by the weight-normalized mean value for the untreated controls. To measure the chondrocyte biosynthesis rate of sulfated glycosaminoglycans (sGAGs), cartilage explants were cultured in the presence of 10 μCi/mL 35S-sulfate radiolabel during the final two days of each experiment. Following this, the explants were washed with PBS with non-radioactive sulfate to wash out excess radiolabel, weighed and digested with proteinase K. A liquid scintillation counter (PerkinElmer) was used to measure the amount of radiolabel incorporated within the extracellular matrix of the tissues. Radiolabel incorporation data were normalized by the duration of exposure to radiolabel and by the wet weight of the explants (Li et al., Osteoarthritis and Cartilage 23(2):266-274 (2015)). […]

[3] = Experiment 1, knee, donor, single 500 nM dose, 3-day time point (days 0-3)
[4] = Experiment 2, knee, donor, single 2 μM dose, 3-day time point
[5] = Experiment 2, knee, single 1 μM dose, 7-day time point
[6] = Experiment 2, knee, single 2 μM dose, 7-day time point

| Substance | cumulative sGAG loss compared to the untreated control ([1]; single 2 μM dose) | aggrecan biosynthesis rate compared to the untreated control [2, 3] | aggrecan biosynthesis rate compared to the untreated control ([2]; Experiment 2, knee, donor, single 1 μM dose, 3-day time point) | aggrecan biosynthesis rate compared to the untreated control [2, 4] | aggrecan biosynthesis rate compared to the untreated control [2, 5] | aggrecan biosynthesis rate compared to the untreated control [2, 6] | cumulative sGAG loss to the medium compared to the untreated control ([1]; 7-day time point (FIG. 15C)) | aggrecan biosynthesis rate compared to the untreated control ([2]; Experiment 1, knee, donor, continuous 40 nM free IGF-1, 3-day time point) | aggrecan biosynthesis rate compared to the untreated control ([2]; Experiment 1, knee, continuous 40 nM free IGF-1, 7-day time point) | aggrecan biosynthesis rate compared to the untreated control ([2]; Experiment 2, knee, continuous 40 nM free IGF-1, 3-day time point) | aggrecan biosynthesis rate compared to the untreated control ([2]; Experiment 2, knee, continuous 40 nM free IGF-1, 7-day time point) | cumulative sGAG loss compared to the untreated control ([1]; single 500 nM dose) | aggrecan biosynthesis rate compared to the untreated control ([2]; Experiment 1, knee, donor, single 2 μM dose, 3-day time point) | mean aggrecan biosynthesis rate at Day 7 versus Day 3 ([2]; Experiment 1, knee, single 500 nM and 2 μM doses on Day 0) | aggrecan biosynthesis rate compared to the untreated control ([2]; Experiment 1, knee, single 500 nM dose, 7-day time point (days 5-7)) | aggrecan biosynthesis rate compared to the untreated control ([2]; Experiment 1, knee, single 2 μM dose, 7-day time point) | aggrecan biosynthesis rate compared to the untreated control ([2]; Experiment 2, knee, donor, single 500 nM dose, 3-day time point) |
| --- | --- | --- | --- | --- | --- | --- | --- | --- | --- | --- | --- | --- | --- | --- | --- | --- | --- |
| (+9GFP)-(EAAAK)3-(IGF-1): fusion protein of +9 GFP and human IGF-1 with rigid (EAAAK)3 linker, SEQ ID NO: 8 | higher cumulative sGAG loss | not statistically significantly different | statistically significantly higher | statistically significantly higher | statistically significantly higher | statistically significantly higher |  |  |  |  |  |  |  |  |  |  |  |
| IGF-1: free recombinant human IGF-1 (PeproTech), pro-anabolic growth factor used as the positive control |  |  |  |  |  |  | higher cumulative sGAG loss | significantly higher | significantly higher | statistically significantly higher | statistically significantly higher |  |  |  |  |  |  |
| (+9GFP)-(GGGGS)4-(IGF-1): fusion protein of +9 GFP and human IGF-1 with flexible (GGGGS)4 linker, SEQ ID NO: 7 |  | significantly higher |  | statistically significantly higher | statistically significantly higher | statistically significantly higher |  |  |  |  |  | higher cumulative sGAG loss | not statistically significantly different | the same as the rate on Day 3 | not statistically significantly different | not statistically significantly different | statistically significantly higher |
